For orientation: ΔTm means the change in melting temperature against a reference sample.

What all share (assay): CD melting at 260 nm
For test [1], the system named is AsGq-4625 (DNA, G4, strand 2: 2'-OMe at 1-5 and 16-20 (text b19; Table S1 footnote says 2'-modification with hydroxy group); phosphorothioate at all linkages) GGTGGTGGTGGTTGTGGTGGTGGTGGAACGGAGGCTGGGAT/AAGGCATCCCAGCCTCCGUU
The settings on record: K+ 40 mM, Mg2+ from TAMg buffer (0.04×), 2% DMF, 4 μM ZnPc, 16 μM DNA, derived from two Tm (52.3, 53.1).

In test [2] the test system is As1411 (DNA, G4) GGTGGTGGTGGTTGTGGTGGTGGTGG
Particulars: K+ 40 mM, Mg2+ from TAMg buffer (0.04×), 2% DMF, 4 μM ZnPc, 16 μM DNA, derived from two Tm (59.8, 61.7).

For test [3], the system named is AsGq (G-quadruplex of As4625') (DNA, G4) GGTGGTGGTGGTTGTGGTGGTGGTGGAACGGAGGCTGGGAT
Particulars: K+ 40 mM, Mg2+ from TAMg buffer (0.04×), 2% DMF, 4 μM ZnPc, 16 μM DNA, derived from two Tm (53.0, 54.6).

Regarding `[Zn+2].c1ccc2c(c1)-c1nc3nc(nc4[n-]c(nc5[n-]c(nc-2n1)c1ccccc51)c1ccccc41)-c1ccccc1-3`, the thermal shift (ΔTm) in test [1] was 0.8 °C; in test [2], 1.9 °C; in test [3], 1.6 °C.

Values taken from article PMC11475320 (2024).
